pEC50: −log10 of the molar value.
Test system: hypoxia-induced VEGF production in HeLa cells
Test: cells
Assay type: cell-based, human
Details: Homo sapiens, HeLa

Row | Compound | pEC50
1 | CC(C)OC(=O)N1CCc2c([nH]c3ccc(Cl)cc23)[C@@H]1c1ccc(OCC2(CO)COCOC2)cc1 [Compound 1360] | 7.40 to 8.10
2 | COC(=O)[C@H]1CCCN1CCCOc1ccc(C2c3[nH]c4ccc(Cl)cc4c3CCN2C(=O)Oc2ccc(Cl)cc2)cc1 (stereo partly shown) [Compound 1362] | > 8.10
3 | CCOC(=O)N1CCc2c([nH]c3ccc(Cl)cc23)C1c1cccc(OCCCN2CCN(C(C)=O)CC2)c1 (stereo not shown) [Compound 1363] | 6.70 to 7.40
4 | CC(=O)N1CCN(CCCOc2cccc(C3c4[nH]c5ccc(Cl)cc5c4CCN3C(=O)Oc3ccc(F)cc3)c2)CC1 (stereo not shown) [Compound 1364] | 6.70 to 7.40
5 | C=CCOc1ccc([C@H]2c3[nH]c4ccc(Cl)cc4c3CCN2C(=O)OCC2CC2)cc1 [Compound 1365] | > 8.10
6 | C=CCOc1ccc([C@H]2c3[nH]c4ccc(Cl)cc4c3CCN2C(=O)OCC2CCC2)cc1 [Compound 1366] | > 8.10
7 | O=C(OCC1CCC1)N1CCc2c([nH]c3ccc(Cl)cc23)[C@@H]1c1ccc(OCCCO)cc1 [Compound 1368] | > 8.10
8 | O=C(OCC1CC1)N1CCc2c([nH]c3ccc(Cl)cc23)[C@@H]1c1ccc(O)cc1 [Compound 1369] | 7.40 to 8.10
9 | O=C(OCC1CCC1)N1CCc2c([nH]c3ccc(Cl)cc23)[C@@H]1c1ccc(O)cc1 [Compound 1370] | 7.40 to 8.10
10 | COc1ccc([C@H]2c3[nH]c4ccc(Cl)cc4c3CCN2C(=O)OCC2CC2)cc1 [Compound 1371] | 7.40 to 8.10
11 | COc1ccc([C@H]2c3[nH]c4ccc(Cl)cc4c3CCN2C(=O)OCC2CCC2)cc1 [Compound 1372] | > 8.10
12 | O=C(OCC1CC1)N1CCc2c([nH]c3ccc(Cl)cc23)[C@@H]1c1ccc(OCC[C@H](O)CO)cc1 [Compound 1373] | > 8.10
13 | O=C(OCC1CCC1)N1CCc2c([nH]c3ccc(Cl)cc23)[C@@H]1c1ccc(OCC[C@H](O)CO)cc1 [Compound 1374] | > 8.10
14 | CC(CO)(CO)COc1ccc([C@H]2c3[nH]c4ccc(Cl)cc4c3CCN2C(=O)OCC2CC2)cc1 [Compound 1375] | > 8.10
15 | CC(CO)(CO)COc1ccc([C@H]2c3[nH]c4ccc(Cl)cc4c3CCN2C(=O)OCC2CCC2)cc1 [Compound 1376] | > 8.10
16 | O=C(OCC1CC1)N1CCc2c([nH]c3ccc(Cl)cc23)[C@@H]1c1ccc(OC[C@H](O)CO)cc1 [Compound 1377] | > 8.10
17 | CC1(COC(=O)N2CCc3c([nH]c4ccc(Cl)cc34)[C@@H]2c2ccc(OC[C@H](O)CO)cc2)CC1 [Compound 1378] | > 8.10
18 | O=C(OCC1CCC1)N1CCc2c([nH]c3ccc(Cl)cc23)[C@@H]1c1ccc(OC[C@H](O)CO)cc1 [Compound 1379] | > 8.10
19 | O=C(OCC1CC1)N1CCc2c([nH]c3ccc(Cl)cc23)[C@@H]1c1ccc(OC[C@@H](O)CO)cc1 [Compound 1380] | > 8.10
20 | CC1(COC(=O)N2CCc3c([nH]c4ccc(Cl)cc34)[C@@H]2c2ccc(OC[C@@H](O)CO)cc2)CC1 [Compound 1381] | > 8.10
21 | O=C(OCC1CCC1)N1CCc2c([nH]c3ccc(Cl)cc23)[C@@H]1c1ccc(OC[C@@H](O)CO)cc1 [Compound 1382] | > 8.10
22 | CCC(CO)(CO)COc1ccc([C@H]2c3[nH]c4ccc(Cl)cc4c3CCN2C(=O)OCC2CC2)cc1 [Compound 1383] | > 8.10
23 | CCC(CO)(CO)COc1ccc([C@H]2c3[nH]c4ccc(Cl)cc4c3CCN2C(=O)OCC2(C)CC2)cc1 [Compound 1384] | > 8.10
24 | CCC(CO)(CO)COc1ccc([C@H]2c3[nH]c4ccc(Cl)cc4c3CCN2C(=O)OCC2CCC2)cc1 [Compound 1385] | > 8.10
25 | O=C(OCC1CCC1)N1CCc2c([nH]c3ccc(Cl)cc23)[C@@H]1c1ccc(OCC2(CO)COCOC2)cc1 [Compound 1386] | 7.40 to 8.10

Row | Compound | pEC50
26 | CCOC(=O)CNC(=O)c1cccc(C2c3[nH]c4ccc(Cl)cc4c3CCN2C(=O)OCC)c1 (stereo not shown) [Compound 1387] | 6.70 to 7.40
27 | CCOC(=O)N1CCc2c([nH]c3ccc(Cl)cc23)C1c1cccc(C(=O)NCC(=O)O)c1 (stereo not shown) [Compound 1388] | < 6.00
28 | CCOC(=O)N1CCc2c([nH]c3ccc(Cl)cc23)C1c1cccc(C(=O)N(C)CC(=O)O)c1 (stereo not shown) [Compound 1389] | < 6.00
29 | CCOC(=O)N1CCc2c([nH]c3ccc(Br)cc23)C1c1ccc(C(=O)N(C)CC(=O)O)cc1 (stereo not shown) [Compound 1390] | < 6.00
30 | CCOC(=O)N1CCc2c([nH]c3ccc(Cl)cc23)C1c1ccc(OCCCOCCOC)cc1 (stereo not shown) [Compound 1396] | < 6.00
31 | [H]/N=C(\N)NCCOc1ccc(C2c3[nH]c4ccc(Cl)cc4c3CCN2C(=O)OCC)cc1 (stereo not shown) [Compound 1397] | 6.70 to 7.40
32 | CCOC(=O)N1CCc2c([nH]c3ccc(Cl)cc23)C1c1ccc(OCCNc2nccnn2)cc1 (stereo not shown) [Compound 1398] | 6.70 to 7.40
33 | CCOC(=O)N1CCc2c([nH]c3ccc(Cl)cc23)C1c1ccc(OCCn2nc(N)cc2C)cc1 (stereo not shown) [Compound 1399] | > 8.10
34 | [H]/N=c1\scnn1CCOc1ccc(C2c3[nH]c4ccc(Cl)cc4c3CCN2C(=O)OCC)cc1 (stereo not shown) [Compound 1400] | > 8.10
35 | CCOC(=O)N1CCc2c([nH]c3ccc(Cl)cc23)C1c1ccc(OCCn2cc(C#N)c(N)n2)cc1 (stereo not shown) [Compound 1401] | 7.40 to 8.10
36 | [H]/N=C(\N)NCCOc1ccc(C2c3[nH]c4ccc(Cl)cc4c3CCN2C(=O)OCC#CC)cc1 (stereo not shown) [Compound 1402] | 6.00 to 6.70
37 | [H]/N=c1\scnn1CCOc1ccc(C2c3[nH]c4ccc(Cl)cc4c3CCN2C(=O)OCC#CC)cc1 (stereo not shown) [Compound 1403] | > 8.10
38 | CC#CCOC(=O)N1CCc2c([nH]c3ccc(Cl)cc23)C1c1ccc(OCCn2cc(C(N)=O)c(N)n2)cc1 (stereo not shown) [Compound 1404] | 6.70 to 7.40
39 | Cc1cc(NCCOc2ccc(C3c4[nH]c5ccc(Cl)cc5c4CCN3C(=O)OCC(C)C)cc2)on1 (stereo not shown) [Compound 1405] | 6.70 to 7.40
40 | CC(C)COC(=O)N1CCc2c([nH]c3ccc(Cl)cc23)C1c1ccc(OCCOc2cc(N)n[nH]2)cc1 (stereo not shown) [Compound 1406] | 6.70 to 7.40
41 | [H]/N=c1\scnn1CCOc1ccc(C2c3[nH]c4ccc(Cl)cc4c3CCN2C(=O)OCC(C)C)cc1 (stereo not shown) [Compound 1407] | > 8.10
42 | CC(C)COC(=O)N1CCc2c([nH]c3ccc(Cl)cc23)C1c1ccc(OCCn2cc(C#N)c(N)n2)cc1 (stereo not shown) [Compound 1408] | > 8.10
43 | CC(C)COC(=O)N1CCc2c([nH]c3ccc(Cl)cc23)C1c1ccc(OCCNc2ncc[nH]2)cc1 (stereo not shown) [Compound 1409] | 6.00 to 6.70
44 | [H]/N=C(\N)NCCOc1ccc(C2c3[nH]c4ccc(Cl)cc4c3CCN2C(=O)OCCOC)cc1 (stereo not shown) [Compound 1410] | < 6.00
45 | COCCOC(=O)N1CCc2c([nH]c3ccc(Cl)cc23)C1c1ccc(OCCNc2cc(C)no2)cc1 (stereo not shown) [Compound 1411] | 6.00 to 6.70
46 | [H]/N=c1\scnn1CCOc1ccc(C2c3[nH]c4ccc(Cl)cc4c3CCN2C(=O)OCCOC)cc1 (stereo not shown) [Compound 1412] | 7.40 to 8.10
47 | CCOC(=O)N1CCc2c([nH]c3cc(C(F)(F)F)ccc23)C1c1ccc(OC)cc1 (stereo not shown) [Compound 1423] | < 6.00
48 | COc1ccc(C2c3[nH]c4cc(C(F)(F)F)ccc4c3CCN2C(=O)Oc2ccc(F)cc2)cc1 (stereo not shown) [Compound 1424] | < 6.00
49 | COc1ccc(OC(=O)N2CCc3c([nH]c4cc(C(F)(F)F)ccc34)C2c2ccc(OC)cc2)cc1 (stereo not shown) [Compound 1425] | < 6.00
50 | COc1ccc(C2c3[nH]c4c(C)cccc4c3CCN2C(=O)Oc2ccc(C)cc2)cc1 (stereo not shown) [Compound 1426] | < 6.00

Row | Compound | pEC50
51 | COc1ccc(OC(=O)N2CCc3c([nH]c4c(C)cccc34)C2c2ccc(OC)cc2)cc1 (stereo not shown) [Compound 1427] | < 6.00
52 | CCOC(=O)N1CCc2c([nH]c3c(C)cccc23)C1c1ccc(OC)cc1 (stereo not shown) [Compound 1428] | < 6.00
53 | COc1ccc(C2c3[nH]c4c(C)cccc4c3CCN2C(=O)Oc2ccc(Cl)cc2)cc1 (stereo not shown) [Compound 1429] | < 6.00
54 | CC#CCOC(=O)N1CCc2c([nH]c3c(C)cccc23)C1c1ccc(OC)cc1 (stereo not shown) [Compound 1430] | < 6.00
55 | COC(=O)N1CCc2c([nH]c3c(C)cccc23)C1c1ccc(OC)cc1 (stereo not shown) [Compound 1431] | < 6.00
56 | N=C1SCCN1CCCOc1ccc(C2c3[nH]c4ccc(Cl)cc4c3CCN2C(=O)OCCF)cc1 (stereo not shown) [Compound 1432] | 7.40 to 8.10
57 | CCOC(=O)N1CCc2c([nH]c3ccc(Cl)cc23)C1c1ccc(OCCNc2ncncn2)cc1 (stereo not shown) [Compound 1433] | > 8.10
58 | CC#CCOC(=O)N1CCc2c([nH]c3ccc(Cl)cc23)C1c1ccc(OCCn2cc(C#N)c(N)n2)cc1 (stereo not shown) [Compound 1434] | > 8.10
59 | [H]/N=C(\N)NCCOc1ccc(C2c3[nH]c4ccc(Cl)cc4c3CCN2C(=O)OCC(C)C)cc1 (stereo not shown) [Compound 1435] | 6.00 to 6.70
60 | CC(C)COC(=O)N1CCc2c([nH]c3ccc(Cl)cc23)C1c1ccc(OCCNc2ncncn2)cc1 (stereo not shown) [Compound 1436] | > 8.10
61 | COCCOC(=O)N1CCc2c([nH]c3ccc(Cl)cc23)C1c1ccc(OCCn2nc(N)cc2C)cc1 (stereo not shown) [Compound 1437] | 7.40 to 8.10
62 | COCCOC(=O)N1CCc2c([nH]c3ccc(Cl)cc23)C1c1ccc(OCCn2cc(C#N)c(N)n2)cc1 (stereo not shown) [Compound 1438] | 6.70 to 7.40
63 | CC#CCOC(=O)N1CCc2c([nH]c3cc(Cl)ccc23)C1c1ccc(OC)cc1 (stereo not shown) [Compound 1443] | 6.00 to 6.70
64 | COc1ccc(C2c3[nH]c4cc(Cl)ccc4c3CCN2C(=O)Oc2ccc(Cl)cc2)cc1 (stereo not shown) [Compound 1444] | 6.70 to 7.40
65 | CC#CCOC(=O)N1CCc2c([nH]c3cc(Br)ccc23)C1c1ccc(OC(F)F)cc1 (stereo not shown) [Compound 1445] | 6.70 to 7.40
66 | O=C(Oc1ccc(Cl)cc1)N1CCc2c([nH]c3cc(Br)ccc23)C1c1ccc(OC(F)F)cc1 (stereo not shown) [Compound 1446] | 6.70 to 7.40
67 | COc1ccc(OC(=O)N2CCc3c([nH]c4cc(Br)ccc34)C2c2ccc(OC(F)F)cc2)cc1 (stereo not shown) [Compound 1447] | 6.70 to 7.40
68 | O=C(OCCF)N1CCc2c([nH]c3cc(Br)ccc23)C1c1ccc(OC(F)F)cc1 (stereo not shown) [Compound 1448] | 6.00 to 6.70
69 | O=C(Oc1ccccc1Cl)N1CCc2c([nH]c3cc(Br)ccc23)C1c1ccc(OC(F)F)cc1 (stereo not shown) [Compound 1449] | 6.00 to 6.70
70 | O=C(Oc1ccc(F)cc1)N1CCc2c([nH]c3cc(Br)ccc23)C1c1ccc(OC(F)F)cc1 (stereo not shown) [Compound 1450] | 6.70 to 7.40
71 | COc1ccc(OC(=O)N2CCc3c([nH]c4cc(Cl)ccc34)C2c2ccc(OC)cc2)cc1 (stereo not shown) [Compound 1455] | < 6.00
72 | CC#CCOC(=O)N1CCc2c([nH]c3cc(F)ccc23)C1c1ccc(C)cc1 (stereo not shown) [Compound 1456] | < 6.00
73 | Cc1ccc(C2c3[nH]c4cc(F)ccc4c3CCN2C(=O)Oc2ccc(Cl)cc2)cc1 (stereo not shown) [Compound 1457] | 6.00 to 6.70
